Tests used:
[1] = biological target: T1, HSV-1 helicase-primase complex (Human herpesvirus 1, UniProt P10189+P10236); test: Helicase-primase inhibitory activity (DNA-dependent ATPase activity, Malachite Green); type: biochemical
T1 construct: made in house; host or cells: Baculovirus expression; The baculoviruses came from Dr. Nigel D. Stow (MRC, UK)
Protocol: Using an Baculoviruses for expressing respective proteins of UL5, UL52 and UL8 which constitute an HSV-1 helicase-primase complex (obtained from Dr. Nigel D. Stow, Medical Research Council, UK), a recombinant HSV-1 helicase-primase complex was prepared by the method described in a report of Crute et al. (J. B. C., 1991, Vol. 266, p. 21252-21256). Detection of DNA-dependent ATPase activity of the HSV-1 helicase-primase complex was carried out in reference to the method described in a report of Crute et al. (J. B. C., 1991, Vol. 266, p. 4484-4488). In brief, 520 ng of the HSV-1 helicase-primase complex was allowed to undergo the reaction at 30° C. for 30 minutes in a reaction liquid containing 20 μg/ml of heat-denatured bovine sperm DNA and 2 mM ATP, and then concentration of phosphoric acid formed through the hydrolysis of ATP into ADP and monophosphate by the activity of ATPase was determined by adding the same volume of Malachite Green reagent (0.03% Malachite Green, 0.1% ammonium molybdate, 4.8% sulfuric acid) and measuring the resulting absorbance at 650 nm. The 50% inhibition concentration (IC50 value) of each compound to be tested for HSV-1 helicase-primase DNA-dependent ATPase was calculated as the concentration which halves the phosphoric acid concentration at the time of not adding the compound.

HSV-1 strain WT-51 = test: HSV-1 skin infection mouse model (in vivo test); design: species or system HR-1 hairless mouse; conditions: for Lesion inhibitory ratio (%): oral twice a day for 5 days
Protocol: Using a cutaneous HSV-1 infection mouse model prepared in accordance with the method of H. Machida et al. (Antiviral Res., 1992, 17, 133-143), in vivo activity of the pharmaceutical composition of the present invention was tested. The skin of each HR-1 hairless mouse [female, 7 weeks of age] was scratched lengthwise and breadthwise several times using a needle and a virus suspension (HSV-1 strain WT-51, 1.5×10^4 PFU/15 μl) was dropped to the scarified region for infection, while anesthetized with diethyl ether.
Regarding the compounds to be tested, VCV was used as the polymerase inhibitor and made into a methyl cellulose suspension, the compound of Preparation 2, N-(4-methylphenyl)-N-(2-{[4-(1,3-oxazol-4-yl)phenyl]amino}-2-oxoethyl)tetrahydro-2H-thiopyran-4-carboxamide 1,1-dioxide, which is described later, was used as the helicase-primase inhibitor and made into a methyl cellulose suspension, and they were orally administered at the doses of the following table twice a day for 5 days starting after 3 hours of the infection. The symptom of the skin lesion caused by HSV-1 infection were classified in the following scores for 17 days:
Score 0: no signs of infection.
Score 1: localized, barely perceptible small vesicles.
Score 2: slight vesicle spread.
Score 3: large patches of vesicles formed.
Score 4: zosteriform vesicles.
Score 5: large patches of ulcers formed.
Score 6: zosteriform with severe large ulcers.
Score 7: hind limb paralysis or death.
The AUC value was calculated from each group's mean disease score, and the disease inhibitory rate of the group administered with each test compound to the placebo group was calculated using the AUC.
In the same manner as described in the above, VCV was used as the polymerase inhibitor and the compound of Preparation 27, N-(2,6-dimethylphenyl)-N-(2-{[4-(1,2,4-oxadiazol-3-yl)phenyl]amino}-2-oxoethyl)tetrahydro-2H-thiopyran-4-carboxamide 1,1-dioxide, which is described later, was used as the helicase-primase inhibitor, with the results shown in the following table.

T1 sequence (P10236 whole entry): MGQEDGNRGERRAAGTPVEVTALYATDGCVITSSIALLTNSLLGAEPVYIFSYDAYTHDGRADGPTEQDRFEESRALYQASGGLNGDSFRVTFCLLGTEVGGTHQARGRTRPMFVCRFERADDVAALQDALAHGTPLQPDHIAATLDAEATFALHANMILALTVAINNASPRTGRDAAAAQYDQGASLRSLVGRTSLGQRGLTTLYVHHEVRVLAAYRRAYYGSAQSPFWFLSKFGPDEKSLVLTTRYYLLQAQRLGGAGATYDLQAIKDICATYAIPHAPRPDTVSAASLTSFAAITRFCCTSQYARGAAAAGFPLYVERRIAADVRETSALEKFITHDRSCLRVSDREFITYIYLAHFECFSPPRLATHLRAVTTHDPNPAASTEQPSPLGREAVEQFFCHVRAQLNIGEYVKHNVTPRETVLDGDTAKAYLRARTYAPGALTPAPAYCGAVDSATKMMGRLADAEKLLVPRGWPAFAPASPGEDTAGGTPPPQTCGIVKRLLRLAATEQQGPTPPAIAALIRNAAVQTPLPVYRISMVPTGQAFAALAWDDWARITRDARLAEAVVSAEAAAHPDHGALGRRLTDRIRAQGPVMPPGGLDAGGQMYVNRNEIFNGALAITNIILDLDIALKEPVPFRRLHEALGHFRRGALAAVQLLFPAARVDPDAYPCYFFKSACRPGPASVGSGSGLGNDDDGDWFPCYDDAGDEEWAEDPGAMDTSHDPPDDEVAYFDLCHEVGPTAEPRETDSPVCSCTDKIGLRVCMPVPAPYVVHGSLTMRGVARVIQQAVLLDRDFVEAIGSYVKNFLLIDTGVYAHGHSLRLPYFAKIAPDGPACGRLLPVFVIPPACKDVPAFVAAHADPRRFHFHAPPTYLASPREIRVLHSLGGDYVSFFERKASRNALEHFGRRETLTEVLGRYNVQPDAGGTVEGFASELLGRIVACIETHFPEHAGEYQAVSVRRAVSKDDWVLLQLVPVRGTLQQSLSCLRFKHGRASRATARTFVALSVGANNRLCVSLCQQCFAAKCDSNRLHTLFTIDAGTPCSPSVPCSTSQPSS
T1 sequence (P10192 whole entry, further chain): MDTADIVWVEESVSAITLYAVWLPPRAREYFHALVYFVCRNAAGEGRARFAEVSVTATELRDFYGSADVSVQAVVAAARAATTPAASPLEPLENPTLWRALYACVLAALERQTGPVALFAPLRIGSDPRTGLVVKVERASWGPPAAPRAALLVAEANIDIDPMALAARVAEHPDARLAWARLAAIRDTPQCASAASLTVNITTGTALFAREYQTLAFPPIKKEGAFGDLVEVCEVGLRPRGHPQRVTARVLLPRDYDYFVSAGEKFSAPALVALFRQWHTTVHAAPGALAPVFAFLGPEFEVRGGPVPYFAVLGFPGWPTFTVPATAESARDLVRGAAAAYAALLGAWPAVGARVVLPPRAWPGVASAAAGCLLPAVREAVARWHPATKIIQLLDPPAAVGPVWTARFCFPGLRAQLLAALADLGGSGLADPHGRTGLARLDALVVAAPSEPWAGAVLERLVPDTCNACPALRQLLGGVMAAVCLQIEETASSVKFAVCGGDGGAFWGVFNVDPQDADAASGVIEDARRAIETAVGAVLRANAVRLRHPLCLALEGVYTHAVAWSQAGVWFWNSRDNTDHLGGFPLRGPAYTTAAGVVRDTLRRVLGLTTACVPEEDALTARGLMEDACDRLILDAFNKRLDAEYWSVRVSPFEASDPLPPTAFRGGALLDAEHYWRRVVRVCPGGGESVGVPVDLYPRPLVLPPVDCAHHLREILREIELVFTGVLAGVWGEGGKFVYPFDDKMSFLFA
T1 sequence (P10189 whole entry): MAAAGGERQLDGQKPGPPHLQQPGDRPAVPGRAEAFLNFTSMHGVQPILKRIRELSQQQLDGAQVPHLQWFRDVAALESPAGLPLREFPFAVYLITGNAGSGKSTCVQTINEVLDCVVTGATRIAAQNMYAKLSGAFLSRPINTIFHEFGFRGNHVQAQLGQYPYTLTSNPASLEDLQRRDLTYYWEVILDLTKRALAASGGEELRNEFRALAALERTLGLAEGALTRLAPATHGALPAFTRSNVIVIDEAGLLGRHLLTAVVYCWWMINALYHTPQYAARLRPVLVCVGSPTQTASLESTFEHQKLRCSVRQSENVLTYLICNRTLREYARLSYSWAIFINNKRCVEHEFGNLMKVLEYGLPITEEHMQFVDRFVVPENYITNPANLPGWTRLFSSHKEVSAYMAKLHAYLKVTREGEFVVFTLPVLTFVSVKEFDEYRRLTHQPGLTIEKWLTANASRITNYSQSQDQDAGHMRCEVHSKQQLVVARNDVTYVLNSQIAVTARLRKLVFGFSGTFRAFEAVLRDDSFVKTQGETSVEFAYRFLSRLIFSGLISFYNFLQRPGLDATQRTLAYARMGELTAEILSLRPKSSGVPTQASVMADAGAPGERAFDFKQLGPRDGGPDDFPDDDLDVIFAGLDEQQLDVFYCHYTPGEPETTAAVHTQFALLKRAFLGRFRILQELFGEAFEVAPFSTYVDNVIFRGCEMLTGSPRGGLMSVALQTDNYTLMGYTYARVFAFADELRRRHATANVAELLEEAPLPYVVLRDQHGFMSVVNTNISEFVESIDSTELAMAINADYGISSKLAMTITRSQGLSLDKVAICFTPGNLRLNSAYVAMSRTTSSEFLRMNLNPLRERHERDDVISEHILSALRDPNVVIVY

Cc1ccc(N(CC(=O)Nc2ccc(-c3cocn3)cc2)C(=O)C2CCS(=O)(=O)CC2)cc1 [Preparation 2, N-(4-methylphenyl)-N-(2-{[4-(1,3-oxazol-4-yl)phenyl]amino}-2-oxoethyl)tetrahydro-2H-thiopyran-4-carboxamide 1,1-dioxide]
IC50 [1]: 84 nM
Lesion inhibitory ratio (%) (HSV-1 strain WT-51; Table 2, compound of Preparation 2 1 mg/kg, VCV 0 mg/kg, AUC of disease score over 17 days vs placebo): 38%
Lesion inhibitory ratio (%) (HSV-1 strain WT-51; Table 2, compound of Preparation 2 3 mg/kg, VCV 0 mg/kg): 52%
Lesion inhibitory ratio (%) (HSV-1 strain WT-51; Table 2, concomitant use: VCV 10 mg/kg + compound of Preparation 2 1 mg/kg): 76%
Lesion inhibitory ratio (%) (HSV-1 strain WT-51; Table 2, concomitant use: VCV 10 mg/kg + compound of Preparation 2 3 mg/kg): 83%
Lesion inhibitory ratio (%) (HSV-1 strain WT-51; Table 2, concomitant use: VCV 30 mg/kg + compound of Preparation 2 1 mg/kg): 86%
Lesion inhibitory ratio (%) (HSV-1 strain WT-51; Table 2, concomitant use: VCV 30 mg/kg + compound of Preparation 2 3 mg/kg): 91%
lesion inhibitory activity (in words) (HSV-1 strain WT-51; concomitant use group of VCV with the compound of Preparation 2, compared with VCV single administration): good lesion inhibitory activity in comparison with the VCV single administration group
inhibition of the lesions (in words) (HSV-1 strain WT-51; concomitant use of 30 mg/kg of VCV with 3 mg/kg of the compound of Preparation 2): almost completely inhibited the lesions

Cc1cccc(C)c1N(CC(=O)Nc1ccc(-c2ncon2)cc1)C(=O)C1CCS(=O)(=O)CC1 [Preparation 27, N-(2,6-dimethylphenyl)-N-(2-{[4-(1,2,4-oxadiazol-3-yl)phenyl]amino}-2-oxoethyl)tetrahydro-2H-thiopyran-4-carboxamide 1,1-dioxide]
IC50 [1]: 110 nM
Lesion inhibitory ratio (%) (HSV-1 strain WT-51; Table 3, compound of Preparation 27 1 mg/kg, VCV 0 mg/kg): 33%
Lesion inhibitory ratio (%) (HSV-1 strain WT-51; Table 3, compound of Preparation 27 3 mg/kg, VCV 0 mg/kg): 68%
Lesion inhibitory ratio (%) (HSV-1 strain WT-51; Table 3, concomitant use: VCV 10 mg/kg + compound of Preparation 27 1 mg/kg): 66%
Lesion inhibitory ratio (%) (HSV-1 strain WT-51; Table 3, concomitant use: VCV 10 mg/kg + compound of Preparation 27 3 mg/kg): 86%
Lesion inhibitory ratio (%) (HSV-1 strain WT-51; Table 3, concomitant use: VCV 30 mg/kg + compound of Preparation 27 1 mg/kg): 88%
Lesion inhibitory ratio (%) (HSV-1 strain WT-51; Table 3, concomitant use: VCV 30 mg/kg + compound of Preparation 27 3 mg/kg): 100%
lesion inhibitory activity (in words) (HSV-1 strain WT-51; concomitant use groups VCV 10 mg/kg + 3 mg/kg, VCV 30 mg/kg + 1 mg/kg, VCV 30 mg/kg + 3 mg/kg of the compound of Preparation 27, compared with VCV single administration): good lesion inhibitory activity in comparison with the VCV single administration group
inhibition of the lesions (in words) (HSV-1 strain WT-51; concomitant use of 30 mg/kg of VCV with 3 mg/kg of the compound of Preparation 27): completely inhibited the lesions

CC(C)[C@H](N)C(=O)OCCOCn1cnc2c(=O)[nH]c(N)nc21 [VCV, valacyclovir, reference compound]
Lesion inhibitory ratio (%) (HSV-1 strain WT-51; Table 2, VCV 10 mg/kg alone): 45%
Lesion inhibitory ratio (%) (HSV-1 strain WT-51; Table 2, VCV 30 mg/kg alone): 57%
Lesion inhibitory ratio (%) (HSV-1 strain WT-51; Table 3, VCV 10 mg/kg alone): 42%
Lesion inhibitory ratio (%) (HSV-1 strain WT-51; Table 3, VCV 30 mg/kg alone): 52%

Source: patent US20090042915A1, “PREVENTIVE OR THERAPEUTIC AGENT FOR HERPESVIRUS-RELEATED DISEASE” (ASTELLAS PHARMA INC., priority 2005, published 2009)
